The record followed here is paper PMC4323178 (Journal of thrombosis and haemostasis : JTH, 2011).

Common to all, as to conditions: SEM
One test concerns the target DR1501 (Homo sapiens, UniProt P01903+P01911). Type of test: binding.
A further test has as its target HLA-DR0101 (Homo sapiens, UniProt P01903+P01911, A100R/D57E/F55L/F60I/F76Y/I96L/L162R/M171V/P40L/Q125E/R42F/V115G/Y59C). Description: biochemical.
The target in a further test is DR0301 (Homo sapiens, UniProt P01903+P01911, A100K/A102G/A103R/A169T/F55Y/I96L/K41T/L162R/M171V/P40S/Q125H/Q178H/Q39Y/R42S/S66N/T106N/W38E/Y61H). The class given is binding.

Take `CC[C@H](C)[C@H](NC(=O)[C@H](CC(N)=O)NC(=O)[C@H](CCC(=O)O)NC(=O)[C@@H](NC(=O)[C@H](CC(C)C)NC(=O)[C@H](Cc1ccc(O)cc1)NC(=O)[C@H](Cc1c[nH]c2ccccc12)NC(=O)[C@H](CO)NC(=O)[C@H](CCCNC(=N)N)NC(=O)[C@H](CC(N)=O)NC(=O)[C@@H](N)CCC(=O)O)[C@@H](C)O)C(=O)N[C@@H](CCC(N)=O)C(=O)N[C@@H](CS)C(=O)N[C@@H](Cc1ccccc1)C(=O)N[C@@H](CC(C)C)C(=O)N1CCC[C@H]1C(=O)N[C@@H](CC(N)=O)C(=O)N1CCC[C@H]1C(=O)N[C@@H](C)C(=O)NCC(=O)O` [FVIII581–600,593C]: the half-inhibitory concentration (IC50) on DR1501 was 56 ± 4 µM; on HLA-DR0101, 50 ± 3 µM.

For the compound `CC[C@H](C)[C@H](NC(=O)[C@H](CC(N)=O)NC(=O)[C@@H](N)CCC(=O)O)C(=O)N[C@@H](CCC(N)=O)C(=O)N[C@@H](CCCNC(=N)N)C(=O)N[C@@H](Cc1ccccc1)C(=O)N[C@@H](CC(C)C)C(=O)N1CCC[C@H]1C(=O)N[C@@H](CC(N)=O)C(=O)N1CCC[C@H]1C(=O)N[C@@H](C)C(=O)NCC(=O)N[C@H](C(=O)N[C@@H](CCC(N)=O)C(=O)N[C@@H](CC(C)C)C(=O)N[C@@H](CCC(=O)O)C(=O)N[C@@H](CC(=O)O)C(=O)N1CCC[C@H]1C(=O)N[C@@H](CCC(=O)O)C(=O)N[C@@H](Cc1ccccc1)C(=O)O)C(C)C` [FVIII589–608], the IC50 against DR0301 is 50 ± 4 µM.

As usually defined, the IC50 is the point on the concentration scale where inhibition reaches its midpoint.
